Consider 21 compounds from patent publication US4670431A, “Beta-lactam antibacterial agents” (Beecham Group p.l.c., priority 1983, dated 1987).

SMILES strings stand for the structures. Converted amounts (≈) assume the structure as drawn. Where a name gives a salt, the structure may show the parent alone.

The first experiment relates to P. mirabilis 889. Description: MIC against P. mirabilis 889.
Conditions: not given
Type of experiment: cell-based, Proteus mirabilis. The source says: The antibiotic compounds of the present invention are active against a wide range of gram negative and gram positive organisms including E. coli such as, for example ESS, JT4, JT425 and NCTC 10418; Pseudomonas Spp. such Ps.aeruginosa for example 10662 and Dalgleish; Serratia marcescens US32; Klebsiella aerogenes A; Enterobacter cloacae N1; P.mirabilis such as, for example C977 and 889; P.morganii, P.rettgeri; B.subtilis; Staph aureus such as, for example Oxford and Russell; N.catarrhalis 1502; Strep faecalis I; β-Haemolytic Strep CN10. The MIC data included in the following examples is representative of the activity of the compounds of the present invention.
In the case of `CCN1CCN(C(=O)N[C@@H](C(=O)N[C@]2(NC=O)C(=O)N3C(C(=O)O)=C(CSc4nnnn4C)C[S+]([O-])[C@@H]32)c2ccc(OC(C)=O)c(OC(C)=O)c2)C(=O)C1=O` (single isomer, unassigned) [Example 5 Isomer A, Sodium 7β-[D-2-(3,4-diacetoxyphenyl)-2-[(4-ethyl-2,3-dioxopiperazin-1-yl)carbonylamino]acetamido]-7α-formamido-3-[(1-methyl-1H-tetrazol-5-yl)thiomethyl]-ceph-3-em-4-carboxylate-1-oxide], the “MIC against P. mirabilis 889” value stood at 0.5 µg/mL.
Consider `CCN1CCN(C(=O)N[C@@H](C(=O)N[C@]2(NC=O)C(=O)N3C(C(=O)O)=C(COC(C)=O)C[S+]([O-])[C@@H]32)c2ccccc2)C(=O)C1=O` (single isomer, unassigned) [Example 3 Isomer B, Sodium 7β-[D-2-[(4-Ethyl-2,3-dioxopiperazin-1-yl)carbonylamino]-2-phenylacetamido]-7α-formamidocephalosporanate-1-oxide], for which the “MIC against P. mirabilis 889” value is 0.25 µg/mL.
Take `CCN1CCN(C(=O)N[C@@H](C(=O)N[C@]2(NC=O)C(=O)N3C(C(=O)O)=C(CSc4nnnn4C)C[S+]([O-])[C@@H]32)c2ccc(OC(C)=O)c(OC(C)=O)c2)C(=O)C1=O` (single isomer, unassigned) [Example 5 Isomer B, Sodium 7β-[D-2-(3,4-diacetoxyphenyl)-2-[(4-ethyl-2,3-dioxopiperazin-1-yl)carbonylamino]acetamido]-7α-formamido-3-[(1-methyl-1H-tetrazol-5-yl)thiomethyl]-ceph-3-em-4-carboxylate-1-oxide]: the “MIC against P. mirabilis 889” value came out at 0.06 µg/mL.
`CCN1CCN(C(=O)N[C@@H](C(=O)N[C@]2(NC=O)C(=O)N3[C@@H](C(=O)O)C(C)(C)[S+]([O-])[C@@H]32)c2ccc(OC(C)=O)c(OC(C)=O)c2)C(=O)C1=O` (single isomer, unassigned; isomer b) [Example 18, Sodium 6β-[D-2-[(4-ethyl-2,3-dioxopiperazin-1-yl)carbonylamino]-2-(3,4-diacetoxyphenyl)acetamido]-6α-formamidopenicillanate-1-oxide, Isomer B]: the “MIC against P. mirabilis 889” value came out at 0.5 µg/mL.
With `CCN1CCN(C(=O)N[C@@H](C(=O)N[C@]2(NC=O)C(=O)N3C(C(=O)O)=C(COC(C)=O)C[S+]([O-])[C@@H]32)c2ccc(OC(C)=O)c(OC(C)=O)c2)C(=O)C1=O` (single isomer, unassigned) [Example 1 Isomer A, Sodium 7β-[D-2-[(4-ethyl-2,3-dioxopiperazin-1-yl)carbonylamino]-2-(3,4-diacetoxyphenyl)acetamido]-7α-formamidocephalosporanate-1-oxide], the “MIC against P. mirabilis 889” value is 0.5 µg/mL.
On to `CCN1CCN(C(=O)N[C@@H](C(=O)N[C@]2(NC=O)C(=O)N3[C@@H](C(=O)O)C(C)(C)[S+]([O-])[C@@H]32)c2ccc(OC(C)=O)c(OC(C)=O)c2)C(=O)C1=O` (single isomer, unassigned; isomer a) [Example 17, Sodium 6β-[D-2-[(4-ethyl-2,3-dioxopiperazin-1-yl)carbonylamino]-2-(3,4-diacetoxyphenyl)acetamido]-6α-formamidopenicillanate-1-oxide, Isomer A], for which the “MIC against P. mirabilis 889” value was determined as 4.0 µg/mL.

Staying with this experiment, now noted: Proteus mirabilis, 889.
As a reminder, the MIC is the smallest concentration in the dilution series that meets the test's criterion for growth inhibition. For `CCN1CCN(C(=O)N[C@@H](C(=O)N[C@]2(NC=O)C(=O)N3[C@@H](C(=O)O)C(C)(C)[S+]([O-])[C@@H]32)c2ccccc2)C(=O)C1=O` (single isomer, unassigned) [Example 22 Isomer B, Sodium 6β-[D-2-[(4-ethyl-2,3-dioxopiperazin-1-yl)carbonylamino]-2-phenylacetamido]-6α-formamidopenicillanate-1-oxide], the MIC is 1 µg/mL.
`CCN1CCN(C(=O)N[C@@H](C(=O)N[C@]2(NC=O)C(=O)N3C(C(=O)O)=C(COC(C)=O)C[S+]([O-])[C@@H]32)c2ccccc2)C(=O)C1=O` (single isomer, unassigned) [Example 3 Isomer A, Sodium 7β-[D-2-[(4-Ethyl-2,3-dioxopiperazin-1-yl)carbonylamino]-2-phenylacetamido]-7α-formamidocephalosporanate-1-oxide] came in with an MIC of 0.25 µg/mL.
The compound `CCN1CCN(C(=O)N[C@@H](C(=O)N[C@]2(NC=O)C(=O)N3C(C(=O)[O-])=C(C[n+]4ccccc4)C[S+]([O-])[C@@H]32)c2ccccc2)C(=O)C1=O` (stereo partly drawn) [Example 7, 7β-[D-2-[(4-Ethyl-2,3-dioxopiperazin-1-yl)carbonylamino]-2-phenylacetamido]-7α-formamido-3-pyridiniummethyl-ceph-3-em-4-carboxylate-1-oxide] returned a minimum inhibitory concentration (MIC) of 8 µg/mL (≈ 12.3 µM).
For `CCN1CCN(C(=O)N[C@@H](C(=O)N[C@]2(NC=O)C(=O)N3C(C(=O)O)=C(CSc4nnnn4C)C[S@@+]([O-])[C@@H]32)c2ccc(O)c(O)c2)C(=O)C1=O` [Example 16(e), Sodium 7β-[D-2-(3,4-dihydroxyphenyl)-2-[(4-ethyl-2,3-dioxopiperazin-1-yl)carbonylamino]acetamido]-7α-formamido-3-[(1-methyl-1H-tetrazol-5-yl)thiomethyl]-ceph-3-em-4-carboxylate-1α-oxide], the minimum inhibitory concentration (MIC) amounted to 0.25 µg/mL.
Turning to `CCN1CCN(C(=O)N[C@@H](C(=O)N[C@]2(NC=O)C(=O)N3C(C(=O)O)=C(COC(C)=O)CS(=O)(=O)[C@@H]32)c2ccccc2)C(=O)C1=O` [Example 2, Sodium 7β-[D,2-([4-Ethyl-2,3-dioxopiperazin-1-yl]carbonylamino)-2-phenylacetamido]-7α-formamidocephalosporanate-1,1-dioxide], the MIC stood at 8 µg/mL.
In turn, `CCN1CCN(C(=O)N[C@@H](C(=O)N[C@]2(NC=O)C(=O)N3C(C(=O)O)=C(CSc4nnnn4C)C[S@+]([O-])[C@@H]32)c2ccc(O)c(O)c2)C(=O)C1=O` [Example 16(d), Sodium 7β-[D-2-(3,4-dihydroxyphenyl)-2-[(4-ethyl-2,3-dioxopiperazin-1-yl)carbonylamino]acetamido]-7α-formamido-3-[(1-methyl-1H-tetrazol-5-yl)thiomethyl]-ceph-3-em-4-carboxylate-1β-oxide] yielded an MIC of 1 µg/mL.
For `CCN1CCN(C(=O)N[C@@H](C(=O)N[C@]2(NC=O)C(=O)N3C(C(=O)O)=C(COC(C)=O)C[S@+]([O-])[C@@H]32)c2ccc(O)cc2)C(=O)C1=O` (single isomer, unassigned) [Example 14 Isomer A, 7β-[D-2-[(4-Ethyl-2,3-dioxopiperazin-1-yl)carbonylamino]-2-(4-hydroxyphenyl)acetamido]-7α-formamidocephalosporanic acid 1-oxide, sodium salt], it took 0.25 µg/mL to inhibit growth (MIC).
Same read-out and setting: in the case of `CCN1CCN(C(=O)N[C@@H](C(=O)N[C@]2(NC=O)C(=O)N3[C@@H](C(=O)O)C(C)(C)[S+]([O-])[C@@H]32)c2ccc(OC(C)=O)c(OC(C)=O)c2)C(=O)C1=O` (stereo partly drawn) [Example 4, Sodium 6β-[D-2-[(4-ethyl-2,3-dioxopiperazin-1-yl)carbonylamino]-2-(3,4-diacetoxyphenyl)acetamido]-6α-formamidopenicillanate-1-oxide] it was 0.12 µg/mL; in that of `CCN1CCN(C(=O)N[C@@H](C(=O)N[C@]2(NC=O)C(=O)N3C(C(=O)O)=C(COC(C)=O)C[S@@+]([O-])[C@@H]32)c2ccc(O)cc2)C(=O)C1=O` (single isomer, unassigned) [Example 14 Isomer B, 7β-[D-2-[(4-Ethyl-2,3-dioxopiperazin-1-yl)carbonylamino]-2-(4-hydroxyphenyl)acetamido]-7α-formamidocephalosporanic acid 1-oxide, sodium salt], 0.12 µg/mL; in that of `CC(=O)OCC1=C(C(=O)O)N2C(=O)[C@@](NC=O)(NC(=O)Cc3cccs3)[C@H]2[S@+]([O-])C1` [Example 27(c), Sodium 7α-Formamido-7β-thien-2-ylacetamidocephalosporanate-1α-oxide], 2 µg/mL.
As to `CC1(C)[C@H](C(=O)O)N2C(=O)[C@@](NC=O)(NC(=O)[C@H](NC(=O)N3CCN(S(C)(=O)=O)C3=O)c3ccc(O)cc3)[C@H]2[S+]1[O-]` (single isomer, unassigned; isomer b) [Example 24, Sodium 6β-[D-2-(4-hydroxyphenyl)-2-[[3-(methylsulphonyl)-2-oxoimidazolidin-1-yl]carbonylamino]acetamido]-6α-formamidopenicillanate-1-oxide (isomer B)], the MIC was found to be 2 µg/mL.
Turning to `CC1(C)[C@H](C(=O)O)N2C(=O)[C@@](NC=O)(NC(=O)[C@H](N)c3ccccc3)[C@H]2[S+]1[O-]` (single isomer, unassigned; isomer b) [Example 23, 6β-(D-2-Amino-2-phenylacetamido)-6α-formamidopenicillanic acid-1-oxide, isomer B], the MIC worked out at 32 µg/mL (≈ 78.3 µM).
For the compound `CCN1CCN(C(=O)N[C@@H](C(=O)N[C@]2(NC=O)C(=O)N3C(C(=O)O)=C(CSc4nnnn4C)C[S@@+]([O-])[C@@H]32)c2ccccc2)C(=O)C1=O` [Example 8(d), Sodium 7β-[D-2-[(4-Ethyl-2,3-dioxopiperazin-1-yl)carbonylamino]-2-phenylacetamido]-7α-formamido-3-[(1-methyl-1H-tetrazol-5-yl)thiomethyl]ceph-3-em-4-carboxylate-1α-oxide], the MIC stood at 0.25 µg/mL.
On to `CCN1CCN(C(=O)N[C@@H](C(=O)N[C@]2(NC=O)C(=O)N3C(C(=O)O)=C(CSc4nnnn4C)CS[C@@H]32)c2ccccc2)C(=O)C1=O` [Example 8(b), 7β-[D-2-[(4-Ethyl-2,3-dioxopiperazin-1-yl)carbonylamino]-2-phenylacetamido]-7α-formamido-3-[(1-methyl-1H-tetrazol-5-yl)thiomethyl]ceph-3-em-4-carboxylic acid, sodium salt], for which the minimum inhibitory concentration (MIC) stood at 0.125 µg/mL.

Still in this experiment, the particulars now being: Proteus mirabilis, 889, broth.
`NC(=O)OCC1=C(C(=O)O)N2C(=O)[C@@](NC=O)(NC(=O)Cc3cccs3)[C@H]2SC1` [Example 26(b), Sodium 3-carbamoyloxymethyl-7α-formamido-7β-thien-2-yletamido-ceph-3-em-4-carboxylate]: the MIC worked out at 16 µg/mL.
